Tests used:
Test in all cases: kinase selectivity panel
Assay type in all cases: biochemical
SAPK3 = target: T1, SAPK3 (Homo sapiens, UniProt P53778); details: read-out: percentage of control activity (POC), SAPK3
T1 construct: purchased Eurofins Pharma Discovery Services (KinaseProfiler; Cerep BioPrint panel)
T1 sequence (P53778 1-367): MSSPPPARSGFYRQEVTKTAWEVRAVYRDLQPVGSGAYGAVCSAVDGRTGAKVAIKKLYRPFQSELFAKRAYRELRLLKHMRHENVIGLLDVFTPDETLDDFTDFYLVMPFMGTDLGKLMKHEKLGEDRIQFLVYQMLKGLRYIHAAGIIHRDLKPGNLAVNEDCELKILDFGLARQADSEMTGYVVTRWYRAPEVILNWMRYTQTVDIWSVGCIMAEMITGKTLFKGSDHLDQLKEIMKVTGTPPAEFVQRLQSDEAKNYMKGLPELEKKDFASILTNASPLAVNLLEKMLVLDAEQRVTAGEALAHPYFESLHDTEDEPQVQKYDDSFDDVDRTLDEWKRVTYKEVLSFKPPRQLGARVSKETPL
Description: (§1) Kinase selectivity was evaluated at Eurofins Pharma Discovery Services using a selection of 125 representative kinases tested at a concentration of 10 μM in duplicate (S3 Table). IC50 values for selected activities were further characterized at 9 duplicate concentrations. DNA-PK activity was determined at the SelectScreen® Biochemical kinase Profiling Service of Thermo Fisher Scientific.

CK1γ1 = target: T2, CK1γ1 (Homo sapiens, UniProt Q9HCP0); details: read-out: percentage of control activity (POC), CK1γ1
T2 construct: purchased Eurofins Pharma Discovery Services (KinaseProfiler; Cerep BioPrint panel)
Description: as §1

MEK1 = target: T3, MEK1 (Homo sapiens, UniProt Q02750); details: read-out: percentage of control activity (POC), MEK1
T3 construct: purchased Eurofins Pharma Discovery Services (KinaseProfiler; Cerep BioPrint panel)
Description: as §1

JNK2α2 = target: T4, JNK2α2 (Homo sapiens, UniProt P45984); details: read-out: percentage of control activity (POC), JNK2α2
T4 construct: purchased Eurofins Pharma Discovery Services (KinaseProfiler; Cerep BioPrint panel)
Description: as §1

PKCε = target: T5, PKCε (Homo sapiens, UniProt Q02156); details: read-out: percentage of control activity (POC), PKCε
T5 construct: purchased Eurofins Pharma Discovery Services (KinaseProfiler; Cerep BioPrint panel)
T5 sequence (Q02156 1-737): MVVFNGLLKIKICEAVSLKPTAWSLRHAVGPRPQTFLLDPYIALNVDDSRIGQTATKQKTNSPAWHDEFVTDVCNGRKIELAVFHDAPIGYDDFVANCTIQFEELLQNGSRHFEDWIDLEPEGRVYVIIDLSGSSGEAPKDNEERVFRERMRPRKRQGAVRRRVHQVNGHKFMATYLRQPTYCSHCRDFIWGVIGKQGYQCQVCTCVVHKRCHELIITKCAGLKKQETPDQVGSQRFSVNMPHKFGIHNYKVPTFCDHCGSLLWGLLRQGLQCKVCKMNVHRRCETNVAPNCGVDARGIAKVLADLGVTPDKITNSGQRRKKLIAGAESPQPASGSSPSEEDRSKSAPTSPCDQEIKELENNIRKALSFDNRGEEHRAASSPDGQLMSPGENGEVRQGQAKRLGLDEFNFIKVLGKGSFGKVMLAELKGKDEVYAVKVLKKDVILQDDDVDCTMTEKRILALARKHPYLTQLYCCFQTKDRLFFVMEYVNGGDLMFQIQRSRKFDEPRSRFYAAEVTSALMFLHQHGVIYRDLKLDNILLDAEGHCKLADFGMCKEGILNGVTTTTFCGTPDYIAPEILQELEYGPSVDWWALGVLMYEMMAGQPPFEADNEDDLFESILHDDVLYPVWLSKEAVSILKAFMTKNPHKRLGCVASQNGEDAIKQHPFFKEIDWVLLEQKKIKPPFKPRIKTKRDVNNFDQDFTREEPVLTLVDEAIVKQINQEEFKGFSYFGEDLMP
Description: as §1

PKCβII = target: T6, PKCβII (Homo sapiens, UniProt P05771); details: read-out: percentage of control activity (POC), PKCβII
T6 construct: purchased Eurofins Pharma Discovery Services (KinaseProfiler; Cerep BioPrint panel)
Description: as §1

MINK = target: T7, MINK (Homo sapiens, UniProt Q8N4C8); details: read-out: percentage of control activity (POC), MINK
T7 construct: purchased Eurofins Pharma Discovery Services (KinaseProfiler; Cerep BioPrint panel)
Description: as §1

ALK = target: T8, ALK (Homo sapiens, UniProt Q9UM73); details: read-out: percentage of control activity (POC), ALK
T8 construct: purchased Eurofins Pharma Discovery Services (KinaseProfiler; Cerep BioPrint panel)
Description: as §1

PKCγ = target: T9, PKCγ (Homo sapiens, UniProt P05129); details: read-out: percentage of control activity (POC), PKCγ
T9 construct: purchased Eurofins Pharma Discovery Services (KinaseProfiler; Cerep BioPrint panel)
Description: as §1

Fgr = target: T10, Fgr (Homo sapiens, UniProt P09769); details: read-out: percentage of control activity (POC), Fgr
T10 construct: purchased Eurofins Pharma Discovery Services (KinaseProfiler; Cerep BioPrint panel)
Description: as §1

JNK1α1 = target: T11, JNK1α1 (Homo sapiens, UniProt P45983); details: read-out: percentage of control activity (POC), JNK1α1
T11 construct: purchased Eurofins Pharma Discovery Services (KinaseProfiler; Cerep BioPrint panel)
Description: as §1

Pim-1 = target: T12, Pim-1 (Homo sapiens, UniProt P11309); details: read-out: percentage of control activity (POC), Pim-1
T12 construct: purchased Eurofins Pharma Discovery Services (KinaseProfiler; Cerep BioPrint panel)
Description: as §1

PDK1 = target: T13, PDK1 (Homo sapiens, UniProt O15530); details: read-out: percentage of control activity (POC), PDK1
T13 construct: purchased Eurofins Pharma Discovery Services (KinaseProfiler; Cerep BioPrint panel)
T13 sequence (O15530 1-556): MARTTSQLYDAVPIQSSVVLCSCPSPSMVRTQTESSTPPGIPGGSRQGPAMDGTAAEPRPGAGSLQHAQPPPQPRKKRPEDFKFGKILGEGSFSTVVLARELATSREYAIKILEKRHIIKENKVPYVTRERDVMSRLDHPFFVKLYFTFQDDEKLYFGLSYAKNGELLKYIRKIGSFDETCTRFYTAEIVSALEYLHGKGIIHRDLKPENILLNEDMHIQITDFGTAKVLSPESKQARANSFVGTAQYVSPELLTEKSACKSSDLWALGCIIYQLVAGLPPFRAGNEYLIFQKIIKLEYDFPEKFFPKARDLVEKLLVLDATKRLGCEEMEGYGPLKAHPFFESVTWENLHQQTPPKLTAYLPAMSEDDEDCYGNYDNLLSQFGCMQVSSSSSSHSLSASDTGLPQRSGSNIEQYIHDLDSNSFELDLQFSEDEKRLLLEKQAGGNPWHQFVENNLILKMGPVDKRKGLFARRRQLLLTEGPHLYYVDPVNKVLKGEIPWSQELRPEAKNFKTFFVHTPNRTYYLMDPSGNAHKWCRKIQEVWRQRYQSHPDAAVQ
Description: as §1

T8 sequence (Q9UM73 19-1620): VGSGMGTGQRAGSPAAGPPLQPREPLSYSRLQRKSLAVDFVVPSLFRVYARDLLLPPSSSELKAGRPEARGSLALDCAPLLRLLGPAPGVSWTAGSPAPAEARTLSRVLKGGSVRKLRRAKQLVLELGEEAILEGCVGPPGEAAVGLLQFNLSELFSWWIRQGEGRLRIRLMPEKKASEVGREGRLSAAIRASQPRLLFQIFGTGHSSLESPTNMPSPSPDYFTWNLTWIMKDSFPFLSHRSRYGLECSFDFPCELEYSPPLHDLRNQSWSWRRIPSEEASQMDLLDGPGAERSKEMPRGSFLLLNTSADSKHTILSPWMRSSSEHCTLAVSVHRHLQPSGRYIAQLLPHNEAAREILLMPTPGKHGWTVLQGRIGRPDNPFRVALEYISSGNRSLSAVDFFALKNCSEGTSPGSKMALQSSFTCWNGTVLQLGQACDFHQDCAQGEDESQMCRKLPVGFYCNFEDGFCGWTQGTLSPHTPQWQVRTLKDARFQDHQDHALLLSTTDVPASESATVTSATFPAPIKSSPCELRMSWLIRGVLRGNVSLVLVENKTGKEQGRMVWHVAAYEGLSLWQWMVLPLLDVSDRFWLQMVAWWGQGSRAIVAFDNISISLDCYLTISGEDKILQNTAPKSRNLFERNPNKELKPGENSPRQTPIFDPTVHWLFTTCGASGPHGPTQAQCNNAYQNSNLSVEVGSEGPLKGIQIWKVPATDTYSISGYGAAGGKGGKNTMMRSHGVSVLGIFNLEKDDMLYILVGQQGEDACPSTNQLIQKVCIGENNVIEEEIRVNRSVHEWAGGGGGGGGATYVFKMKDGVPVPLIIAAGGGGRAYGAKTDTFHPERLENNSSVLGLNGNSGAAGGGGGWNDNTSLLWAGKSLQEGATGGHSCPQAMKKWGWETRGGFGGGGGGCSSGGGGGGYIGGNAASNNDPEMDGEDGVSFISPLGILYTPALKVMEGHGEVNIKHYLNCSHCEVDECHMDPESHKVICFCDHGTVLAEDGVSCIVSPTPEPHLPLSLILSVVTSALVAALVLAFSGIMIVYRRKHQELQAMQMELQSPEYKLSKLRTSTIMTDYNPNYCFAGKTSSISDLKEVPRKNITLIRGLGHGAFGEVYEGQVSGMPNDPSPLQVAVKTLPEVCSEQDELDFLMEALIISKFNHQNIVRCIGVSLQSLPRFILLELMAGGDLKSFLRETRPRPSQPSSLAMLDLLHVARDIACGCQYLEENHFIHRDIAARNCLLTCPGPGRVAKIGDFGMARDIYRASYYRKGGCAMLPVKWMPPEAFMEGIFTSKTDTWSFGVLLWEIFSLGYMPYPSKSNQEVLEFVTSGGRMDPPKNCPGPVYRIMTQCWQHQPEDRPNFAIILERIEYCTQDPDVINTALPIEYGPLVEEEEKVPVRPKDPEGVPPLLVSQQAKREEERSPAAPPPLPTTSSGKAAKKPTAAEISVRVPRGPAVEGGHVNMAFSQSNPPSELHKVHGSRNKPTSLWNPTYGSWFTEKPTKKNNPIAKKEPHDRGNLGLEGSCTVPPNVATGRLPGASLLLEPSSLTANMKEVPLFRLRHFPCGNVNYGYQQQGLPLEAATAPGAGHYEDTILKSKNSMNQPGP
T10 sequence (P09769 whole entry): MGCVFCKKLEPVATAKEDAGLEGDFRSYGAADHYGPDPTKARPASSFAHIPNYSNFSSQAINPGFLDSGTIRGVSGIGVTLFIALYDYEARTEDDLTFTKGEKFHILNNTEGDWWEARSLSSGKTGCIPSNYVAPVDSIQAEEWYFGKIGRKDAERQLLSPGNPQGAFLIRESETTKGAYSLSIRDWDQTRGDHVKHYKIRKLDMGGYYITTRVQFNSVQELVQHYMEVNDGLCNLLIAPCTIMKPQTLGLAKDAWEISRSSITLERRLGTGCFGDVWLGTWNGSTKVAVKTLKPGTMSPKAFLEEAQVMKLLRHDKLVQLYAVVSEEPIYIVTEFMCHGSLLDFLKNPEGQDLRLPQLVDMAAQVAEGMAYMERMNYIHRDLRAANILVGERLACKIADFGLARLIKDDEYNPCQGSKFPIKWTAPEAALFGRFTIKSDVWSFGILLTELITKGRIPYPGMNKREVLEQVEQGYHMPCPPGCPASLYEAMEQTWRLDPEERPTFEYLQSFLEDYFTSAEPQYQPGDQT
T3 sequence (Q02750 whole entry): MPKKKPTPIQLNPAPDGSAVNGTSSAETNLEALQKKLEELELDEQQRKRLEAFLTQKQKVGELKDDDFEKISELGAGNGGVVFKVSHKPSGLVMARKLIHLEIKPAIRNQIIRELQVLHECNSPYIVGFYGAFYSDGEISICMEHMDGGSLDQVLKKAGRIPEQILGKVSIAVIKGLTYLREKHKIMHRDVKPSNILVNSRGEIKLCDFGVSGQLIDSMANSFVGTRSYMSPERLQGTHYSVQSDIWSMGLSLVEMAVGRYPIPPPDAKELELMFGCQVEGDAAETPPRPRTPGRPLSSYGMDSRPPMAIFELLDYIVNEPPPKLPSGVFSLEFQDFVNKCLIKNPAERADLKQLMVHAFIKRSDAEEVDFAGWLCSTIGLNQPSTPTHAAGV
T11 sequence (P45983 1-384 isoform P45983-2): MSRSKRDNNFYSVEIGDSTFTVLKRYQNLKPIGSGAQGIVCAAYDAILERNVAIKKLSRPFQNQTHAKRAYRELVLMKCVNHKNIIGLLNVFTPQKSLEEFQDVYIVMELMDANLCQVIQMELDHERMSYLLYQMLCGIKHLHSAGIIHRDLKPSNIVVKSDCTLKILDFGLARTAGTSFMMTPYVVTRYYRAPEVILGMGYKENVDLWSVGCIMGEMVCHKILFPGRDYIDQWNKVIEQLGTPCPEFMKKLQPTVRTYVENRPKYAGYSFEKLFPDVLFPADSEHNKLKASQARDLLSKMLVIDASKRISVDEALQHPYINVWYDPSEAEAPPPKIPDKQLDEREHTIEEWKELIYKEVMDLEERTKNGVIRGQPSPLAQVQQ
T12 sequence (P11309 whole entry): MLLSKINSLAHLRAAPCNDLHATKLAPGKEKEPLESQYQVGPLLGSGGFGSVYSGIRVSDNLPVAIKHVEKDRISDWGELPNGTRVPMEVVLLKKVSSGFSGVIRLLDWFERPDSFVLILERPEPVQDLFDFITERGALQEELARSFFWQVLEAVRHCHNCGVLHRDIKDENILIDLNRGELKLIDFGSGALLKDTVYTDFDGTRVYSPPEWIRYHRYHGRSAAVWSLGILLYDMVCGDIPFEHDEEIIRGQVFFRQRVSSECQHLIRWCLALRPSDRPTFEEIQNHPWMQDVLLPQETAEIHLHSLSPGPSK
T2 sequence (Q9HCP0 whole entry): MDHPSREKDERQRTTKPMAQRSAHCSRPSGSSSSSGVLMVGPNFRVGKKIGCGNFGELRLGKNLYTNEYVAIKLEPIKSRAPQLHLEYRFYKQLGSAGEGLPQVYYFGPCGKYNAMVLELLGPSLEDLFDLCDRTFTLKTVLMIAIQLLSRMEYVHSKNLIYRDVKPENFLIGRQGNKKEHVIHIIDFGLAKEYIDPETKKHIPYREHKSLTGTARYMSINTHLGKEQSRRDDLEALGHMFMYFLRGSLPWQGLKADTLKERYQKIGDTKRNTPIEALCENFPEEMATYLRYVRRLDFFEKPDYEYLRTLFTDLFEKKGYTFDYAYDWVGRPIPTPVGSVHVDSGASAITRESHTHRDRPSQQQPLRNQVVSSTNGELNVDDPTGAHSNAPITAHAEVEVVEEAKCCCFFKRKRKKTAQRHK
T6 sequence (P05771 1-673 isoform P05771-2): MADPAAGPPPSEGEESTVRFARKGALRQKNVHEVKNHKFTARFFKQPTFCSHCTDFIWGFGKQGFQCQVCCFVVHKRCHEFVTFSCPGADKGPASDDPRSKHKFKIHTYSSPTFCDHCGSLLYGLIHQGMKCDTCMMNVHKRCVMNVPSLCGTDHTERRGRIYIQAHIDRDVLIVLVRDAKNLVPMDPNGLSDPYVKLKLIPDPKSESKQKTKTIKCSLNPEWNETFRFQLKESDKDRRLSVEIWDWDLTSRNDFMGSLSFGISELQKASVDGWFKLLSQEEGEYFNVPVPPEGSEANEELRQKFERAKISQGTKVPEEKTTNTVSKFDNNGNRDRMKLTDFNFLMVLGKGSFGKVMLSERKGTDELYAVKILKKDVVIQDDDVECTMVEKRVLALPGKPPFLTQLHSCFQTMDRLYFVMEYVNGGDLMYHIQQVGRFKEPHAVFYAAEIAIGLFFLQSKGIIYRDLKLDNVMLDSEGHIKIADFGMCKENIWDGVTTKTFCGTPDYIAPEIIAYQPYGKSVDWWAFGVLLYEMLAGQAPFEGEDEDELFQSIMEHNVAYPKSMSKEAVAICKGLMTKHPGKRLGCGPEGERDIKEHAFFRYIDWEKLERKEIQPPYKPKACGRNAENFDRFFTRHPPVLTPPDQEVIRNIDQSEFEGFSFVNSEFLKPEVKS

remaining activity at 10 µM (SAPK3) | remaining activity at 10 µM (CK1γ1) | remaining activity at 10 µM (MEK1) | remaining activity at 10 µM (JNK2α2) | remaining activity at 10 µM (PKCε) | remaining activity at 10 µM (PKCβII) | remaining activity at 10 µM (MINK) | remaining activity at 10 µM (ALK) | remaining activity at 10 µM (PKCγ) | remaining activity at 10 µM (Fgr) | remaining activity at 10 µM (JNK1α1) | remaining activity at 10 µM (Pim-1) | remaining activity at 10 µM (PDK1) | SMILES
75% | 101% | 112% | 101% | 94% | 117% | 104% | 89% | 117% | 99% | 97% | 86% | 121% | CC(C)(C)N1CCC(c2cc(-c3ccc(F)cc3Cl)c3cc[n+]([O-])c(-c4c(Cl)cccc4Cl)c3n2)CC1 [compound 2]
78% | 98% | 94% | 94% | 102% | 103% | 93% | 77% | 104% | 93% | 96% | 79% | 98% | Cc1ccc(C(=O)NCC2CC2)cc1-c1ccc2c(c1)NC(=O)C21CCCC1 [compound 3]
67% | 98% | 107% | 91% | 100% | 113% | 110% | 146% | 105% | 98% | 96% | 96% | 121% | COc1c(NC(=O)c2ccc(C)c(-c3nnc4c(NCC(C)(C)C)nccn34)c2)cc(C(C)(C)C)cc1NS(C)(=O)=O [compound 7, reference compound]

SMILES | remaining activity at 10 µM (SAPK3) | remaining activity at 10 µM (CK1γ1) | remaining activity at 10 µM (MEK1) | remaining activity at 10 µM (JNK2α2) | remaining activity at 10 µM (PKCε) | remaining activity at 10 µM (PKCβII) | remaining activity at 10 µM (MINK) | remaining activity at 10 µM (ALK) | remaining activity at 10 µM (PKCγ) | remaining activity at 10 µM (Fgr) | remaining activity at 10 µM (JNK1α1) | remaining activity at 10 µM (Pim-1) | remaining activity at 10 µM (PDK1)
Cn1cc(-c2cccc(-c3nc(C(=O)NC4C5CC6CC4CC(O)(C6)C5)c(N)nc3N)c2)cn1 (centres unmarked) [compound 4] | 92% | 89% | 97% | 98% | 87% | 110% | 94% | 64% | 96% | 67% | 92% | 68% | 118%
CS(=O)(=O)N1CCN(c2ccc(Nc3ncc(C(N)=O)c(NC4CC4)n3)cc2)CC1 [compound 5] | 64% | 25% | 13% | 8% | 54% | 80% | 14% | 62% | 4% | 5% | 3% | 81% | 7%

— paper PMC5761851, “Application of a phenotypic drug discovery strategy to identify biological and chemical starting points for inhibition of TSLP production in lung epithelial cells” (PLoS ONE, 2018)
